For 22 compounds, MIC80 results are on record in ChEMBL document CHEMBL4184109, “Design, synthesis, and structure-activity relationship studies of novel tetrazole antifungal agents with potent activity, broad antifungal spectrum and high selectivity” (Bioorg Med Chem Lett, 2018).

Type in all cases: functional
One experiment deals with Candida parapsilosis. Put plainly: Antifungal activity against Candida parapsilosis ATCC 22019 after 24 hrs by serial dilution method. The note with it: Lodderomyces parapsilosis, ATCC 22019, 24 h.
A further experiment relates to Cryptococcus neoformans. The experiment can be described thus: Antifungal activity against Cryptococcus neoformans after 72 hrs by serial dilution method.
For experiment [1], the system named is Candida albicans. Put plainly: Antifungal activity against Candida albicans Y0109 after 24 hrs by serial dilution method. The following applies: Y0109, 24 h.
In a further experiment the test system is Nakaseomyces glabratus. Put plainly: Antifungal activity against Candida glabrata after 24 hrs by serial dilution method.
For experiment [2], the system named is Candida albicans. Put plainly: Antifungal activity against Candida albicans SC5314 after 24 hrs by serial dilution method. The note with it: SC5314, 24 h.
A further experiment has as its system Aspergillus fumigatus. Put plainly: Antifungal activity against Aspergillus fumigatus after 48 hrs by serial dilution method.

Molecules are shown by their SMILES. In brackets after ≈: the same amount, converted by molar mass.

As usually defined, the MIC80 is an inhibitory concentration at the 80% level, which refers to growth in some studies and to a panel of isolates in others. A low value points to higher susceptibility.

Consider `CSc1ccc(Cn2ncn(-c3ccc(C(F)(F)C(O)(Cn4cnnn4)c4ccc(F)cc4F)nc3)c2=O)cc1` (configuration not stated), for which the MIC80 against Candida parapsilosis was 4 µg/mL (≈ 6.99 µM); with Cryptococcus neoformans it was 2 µg/mL (≈ 3.49 µM); against Candida albicans [1], 4 µg/mL (≈ 6.99 µM); with Nakaseomyces glabratus, 4 µg/mL (≈ 6.99 µM); in the experiment with Candida albicans [2] it was 4 µg/mL (≈ 6.99 µM); against Aspergillus fumigatus, over 64 µg/mL.

Consider `O=c1n(-c2ccc(C(F)(F)C(O)(Cn3cnnn3)c3ccc(F)cc3F)nc2)cnn1Cc1ccncc1` (configuration not stated), for which the MIC80 is 8 µg/mL (≈ 15.2 µM) in the experiment with Candida parapsilosis; 2 µg/mL (≈ 3.79 µM) in the experiment on Cryptococcus neoformans; 4 µg/mL (≈ 7.58 µM) in the experiment with Candida albicans [1]; 4 µg/mL (≈ 7.58 µM) in the experiment with Nakaseomyces glabratus; 4 µg/mL (≈ 7.58 µM) against Candida albicans [2]; over 64 µg/mL with Aspergillus fumigatus.

As for `O=c1n(-c2ccc(C(F)(F)C(O)(Cn3cnnn3)c3ccc(F)cc3F)nc2)cnn1Cc1ccccn1` (configuration not stated), the MIC80 with Candida parapsilosis is 16 µg/mL (≈ 30.3 µM); with Cryptococcus neoformans, 1 µg/mL (≈ 1.9 µM); in the experiment on Candida albicans [1], 4 µg/mL (≈ 7.58 µM); in the experiment with Nakaseomyces glabratus it was 2 µg/mL (≈ 3.79 µM); in the experiment on Candida albicans [2] it was 2 µg/mL (≈ 3.79 µM); against Aspergillus fumigatus, over 64 µg/mL.

Turning to `CC(C)(O)Cn1ncn(-c2ccc(C(F)(F)C(O)(Cn3cnnn3)c3ccc(F)cc3F)nc2)c1=O` (configuration not stated), the MIC80 was 4 µg/mL (≈ 7.87 µM) in the experiment with Candida parapsilosis; over 8 µg/mL in the experiment with Cryptococcus neoformans; over 8 µg/mL against Candida albicans [1]; over 8 µg/mL in the experiment on Nakaseomyces glabratus; over 8 µg/mL against Candida albicans [2]; over 8 µg/mL in the experiment with Aspergillus fumigatus.

As to `CS(=O)(=O)c1ccc(Cn2ncn(-c3ccc(C(F)(F)C(O)(Cn4cnnn4)c4ccc(F)cc4F)nc3)c2=O)cc1` (configuration not stated), the MIC80 against Candida parapsilosis, with Cryptococcus neoformans, against Candida albicans [1], in the experiment with Nakaseomyces glabratus, with Candida albicans [2] and in the experiment with Aspergillus fumigatus was over 64 µg/mL each time.

Regarding `O=c1n(-c2ccc(C(F)(F)C(O)(Cn3cnnn3)c3ccc(F)cc3F)nc2)cnn1Cc1ccccc1` (configuration not stated), the MIC80 was 0.25 µg/mL (≈ 0.475 µM) against Candida parapsilosis; 4 µg/mL (≈ 7.6 µM) against Cryptococcus neoformans; 1 µg/mL (≈ 1.9 µM) in the experiment on Candida albicans [1]; 4 µg/mL (≈ 7.6 µM) against Nakaseomyces glabratus; 0.5 µg/mL (≈ 0.95 µM) in the experiment with Candida albicans [2]; over 8 µg/mL in the experiment on Aspergillus fumigatus.

Regarding `O=C1CCCCC1n1ncn(-c2ccc(C(F)(F)C(O)(Cn3cnnn3)c3ccc(F)cc3F)nc2)c1=O` (configuration not stated), the MIC80 in the experiment with Candida parapsilosis is 2 µg/mL (≈ 3.76 µM); with Cryptococcus neoformans, over 8 µg/mL; in the experiment with Candida albicans [1], 4 µg/mL (≈ 7.51 µM); in the experiment with Nakaseomyces glabratus, over 8 µg/mL; against Candida albicans [2], over 8 µg/mL; against Aspergillus fumigatus it was over 8 µg/mL.

For `COc1ccc(Cn2ncn(-c3ccc(C(F)(F)C(O)(Cn4cnnn4)c4ccc(F)cc4F)nc3)c2=O)cc1` (configuration not stated), the MIC80 in the experiment with Candida parapsilosis is 0.25 µg/mL (≈ 0.449 µM); against Cryptococcus neoformans it was 2 µg/mL (≈ 3.59 µM); in the experiment on Candida albicans [1] it was 0.5 µg/mL (≈ 0.899 µM); against Nakaseomyces glabratus, 2 µg/mL (≈ 3.59 µM); against Candida albicans [2], 0.5 µg/mL (≈ 0.899 µM); in the experiment on Aspergillus fumigatus, over 8 µg/mL.

For `O=c1n(-c2ccc(C(F)(F)C(O)(Cn3cnnn3)c3ccc(F)cc3F)nc2)cnn1CC1CC1` (configuration not stated), the MIC80 in the experiment with Candida parapsilosis is 0.25 µg/mL (≈ 0.51 µM); against Cryptococcus neoformans, 4 µg/mL (≈ 8.16 µM); against Candida albicans [1], 0.5 µg/mL (≈ 1.02 µM); in the experiment on Nakaseomyces glabratus, 4 µg/mL (≈ 8.16 µM); against Candida albicans [2] it was 0.5 µg/mL (≈ 1.02 µM); against Aspergillus fumigatus, over 8 µg/mL.

Regarding `O=c1n(-c2ccc(C(F)(F)C(O)(Cn3cnnn3)c3ccc(F)cc3F)nc2)cnn1Cc1ccc(F)cc1` (configuration not stated), the MIC80 with Candida parapsilosis was 0.25 µg/mL (≈ 0.459 µM); against Cryptococcus neoformans, 2 µg/mL (≈ 3.67 µM); with Candida albicans [1] it was 1 µg/mL (≈ 1.84 µM); with Nakaseomyces glabratus, 2 µg/mL (≈ 3.67 µM); in the experiment with Candida albicans [2], 0.5 µg/mL (≈ 0.918 µM); against Aspergillus fumigatus, over 8 µg/mL.

On to `CCC(CC)n1ncn(-c2ccc(C(F)(F)C(O)(Cn3cnnn3)c3ccc(F)cc3F)nc2)c1=O` (configuration not stated), for which the MIC80 was 0.25 µg/mL (≈ 0.494 µM) in the experiment on Candida parapsilosis; 4 µg/mL (≈ 7.9 µM) in the experiment with Cryptococcus neoformans; 2 µg/mL (≈ 3.95 µM) with Candida albicans [1]; 1 µg/mL (≈ 1.97 µM) against Nakaseomyces glabratus; 1 µg/mL (≈ 1.97 µM) in the experiment with Candida albicans [2]; over 8 µg/mL against Aspergillus fumigatus.

For the compound `CC(O)(CO)Cn1ncn(-c2ccc(C(F)(F)C(O)(Cn3cnnn3)c3ccc(F)cc3F)nc2)c1=O` (configuration not stated), the MIC80 against Candida parapsilosis, in the experiment with Cryptococcus neoformans, against Candida albicans [1], against Nakaseomyces glabratus, in the experiment with Candida albicans [2] and against Aspergillus fumigatus was over 8 µg/mL each time.

For `N#Cc1ccc(Cn2ncn(-c3ccc(C(F)(F)C(O)(Cn4cnnn4)c4ccc(F)cc4F)nc3)c2=O)cc1` (configuration not stated), the MIC80 was 0.5 µg/mL (≈ 0.907 µM) with Candida parapsilosis; 4 µg/mL (≈ 7.25 µM) in the experiment with Cryptococcus neoformans; 1 µg/mL (≈ 1.81 µM) with Candida albicans [1]; 4 µg/mL (≈ 7.25 µM) in the experiment on Nakaseomyces glabratus; 2 µg/mL (≈ 3.63 µM) against Candida albicans [2]; over 8 µg/mL in the experiment with Aspergillus fumigatus.

As to `O=c1n(-c2ccc(C(F)(F)C(O)(Cn3cnnn3)c3ccc(F)cc3F)nc2)cnn1Cc1ccc(C(F)(F)F)cc1` (configuration not stated), the MIC80 was 0.5 µg/mL (≈ 0.841 µM) in the experiment with Candida parapsilosis; 4 µg/mL (≈ 6.73 µM) in the experiment on Cryptococcus neoformans; 1 µg/mL (≈ 1.68 µM) in the experiment on Candida albicans [1]; 4 µg/mL (≈ 6.73 µM) in the experiment with Nakaseomyces glabratus; 2 µg/mL (≈ 3.36 µM) with Candida albicans [2]; over 8 µg/mL against Aspergillus fumigatus.

With `O=c1n(-c2ccc(C(F)(F)C(O)(Cn3cnnn3)c3ccc(F)cc3F)nc2)cnn1Cc1ccc(OC(F)(F)F)cc1` (configuration not stated), the MIC80 in the experiment with Candida parapsilosis was 0.5 µg/mL (≈ 0.819 µM); with Cryptococcus neoformans, 2 µg/mL (≈ 3.28 µM); against Candida albicans [1], 1 µg/mL (≈ 1.64 µM); in the experiment on Nakaseomyces glabratus, 4 µg/mL (≈ 6.55 µM); against Candida albicans [2] it was 1 µg/mL (≈ 1.64 µM); against Aspergillus fumigatus, over 8 µg/mL.

Turning to `CS(=O)(=O)CCn1ncn(-c2ccc(C(F)(F)C(O)(Cn3cnnn3)c3ccc(F)cc3F)nc2)c1=O` (configuration not stated), the MIC80 with Candida parapsilosis, against Cryptococcus neoformans, in the experiment on Candida albicans [1], against Nakaseomyces glabratus, against Candida albicans [2] and with Aspergillus fumigatus was over 8 µg/mL each time.

As for `COCCOc1ccc(Cn2ncn(-c3ccc(C(F)(F)C(O)(Cn4cnnn4)c4ccc(F)cc4F)nc3)c2=O)cc1` (configuration not stated), the MIC80 was 2 µg/mL (≈ 3.33 µM) in the experiment on Candida parapsilosis; 0.5 µg/mL (≈ 0.833 µM) in the experiment with Cryptococcus neoformans; 1 µg/mL (≈ 1.67 µM) in the experiment with Candida albicans [1]; 2 µg/mL (≈ 3.33 µM) in the experiment with Nakaseomyces glabratus; 1 µg/mL (≈ 1.67 µM) with Candida albicans [2]; over 64 µg/mL in the experiment on Aspergillus fumigatus.

For `CCC(C)n1ncn(-c2ccc(C(F)(F)C(O)(Cn3cnnn3)c3ccc(F)cc3F)nc2)c1=O` (configuration not stated), the MIC80 is 0.25 µg/mL (≈ 0.508 µM) in the experiment on Candida parapsilosis; 4 µg/mL (≈ 8.12 µM) against Cryptococcus neoformans; 1 µg/mL (≈ 2.03 µM) with Candida albicans [1]; 2 µg/mL (≈ 4.06 µM) with Nakaseomyces glabratus; 1 µg/mL (≈ 2.03 µM) against Candida albicans [2]; over 8 µg/mL in the experiment with Aspergillus fumigatus.

`CCn1ncn(-c2ccc(C(F)(F)C(O)(Cn3cnnn3)c3ccc(F)cc3F)nc2)c1=O` (configuration not stated): the MIC80 against Candida parapsilosis was 2 µg/mL (≈ 4.31 µM); against Cryptococcus neoformans it was 8 µg/mL (≈ 17.2 µM); against Candida albicans [1], 2 µg/mL (≈ 4.31 µM); against Nakaseomyces glabratus, 8 µg/mL (≈ 17.2 µM); in the experiment on Candida albicans [2] it was 2 µg/mL (≈ 4.31 µM); in the experiment on Aspergillus fumigatus, over 8 µg/mL.

Regarding `Cc1ccc(Cn2ncn(-c3ccc(C(F)(F)C(O)(Cn4cnnn4)c4ccc(F)cc4F)nc3)c2=O)cc1` (configuration not stated), the MIC80 with Candida parapsilosis was 0.25 µg/mL (≈ 0.463 µM); against Cryptococcus neoformans, 2 µg/mL (≈ 3.7 µM); against Candida albicans [1] it was 1 µg/mL (≈ 1.85 µM); in the experiment on Nakaseomyces glabratus it was 2 µg/mL (≈ 3.7 µM); against Candida albicans [2] it was 1 µg/mL (≈ 1.85 µM); with Aspergillus fumigatus, over 8 µg/mL.

Consider `O=c1n(-c2ccc(C(F)(F)C(O)(Cn3cnnn3)c3ccc(F)cc3F)nc2)cnn1Cc1ccc(Cl)cc1` (configuration not stated), for which the MIC80 in the experiment on Candida parapsilosis is 0.5 µg/mL (≈ 0.891 µM); against Cryptococcus neoformans, 1 µg/mL (≈ 1.78 µM); with Candida albicans [1], 1 µg/mL (≈ 1.78 µM); with Nakaseomyces glabratus, 2 µg/mL (≈ 3.57 µM); against Candida albicans [2], 1 µg/mL (≈ 1.78 µM); in the experiment on Aspergillus fumigatus it was over 8 µg/mL.

Regarding `O=c1n(-c2ccc(C(F)(F)C(O)(Cn3cnnn3)c3ccc(F)cc3F)nc2)cnn1CC#CCO` (configuration not stated), the MIC80 with Candida parapsilosis is 4 µg/mL (≈ 7.93 µM); against Cryptococcus neoformans, over 8 µg/mL; against Candida albicans [1], over 8 µg/mL; against Nakaseomyces glabratus, over 8 µg/mL; against Candida albicans [2], over 8 µg/mL; against Aspergillus fumigatus it was over 8 µg/mL.
